From patent US9828339B2, “Biphenyl derivatives and methods for preparing same” (DONG-A ST CO., LTD, priority 2013, dated 2017) come the findings set out here.

Series [1] concerns the target T1, human muscarinic M3 receptor (Homo sapiens (Human), UniProt P20309). In words: Binding assay on human muscarinic M3 receptor ([3H]-methyl scopolamine displacement). The settings on record: membranes overexpressing human M3 receptor, Ki from IC50 by Cheng-Prusoff, read-out: Binding Affinity to M3 Receptor, Ki. In a few lines:
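Displacement of [3H]-methyl scopolamine from membranes overexpressing human M3, in Tris-HCl, 25 °C, 120 min; filter-bound radioactivity counted. Nonspecific binding with 5 μM atropine; Ki from IC50 via Cheng-Prusoff.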

In series [2] the target is T1, human muscarinic M3 receptor. Kind of series: Antagonism assay on human muscarinic M3 receptor (carbachol-induced intracellular calcium, FLIPR Calcium 5, transfected Cos-7 cells). It counts as cell-based. The settings on record: functional inhibitory constant; carbachol-induced intracellular calcium in Cos-7 cells transfected with human M3 receptor. In a few lines:
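Cos-7 cells transfected with human M3 receptor plasmid, pre-treated 3 min with compound, then carbachol-stimulated; intracellular calcium read by FLIPR Calcium 5.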
(Calcium flux is commonly read through the fluorescence of an indicator in the cells.)

A further series deals with Sprague-Dawley (SD) rats. Kind of series: Acute toxicity test for oral administration on rats. The format is in vivo, rat. The conditions noted are these: observed for 4 days. On the procedure: [Experimental Example 4] Acute Toxicity Test for Oral Administration on Rats
In order to confirm acute toxicity of the compounds of the present invention, following experiment was conducted. A low-dose group, a medi-dose group and a high-dose group, wherein the compounds of Examples were administered 100 mg/kg, 300 mg/kg and 1000 mg/kg respectively, were prepared. Methyl cellulose solution (0.5%) was prepared and orally administered to 3 rats of each group (i.e. both sexes of 6-week old Sprague-Dawley (SD) rats; male rats in 142-143 g; female rats in 126.3-127.3 g) in a volume of 10 mL/kg. Mortality, clinical signs and weight and the like were measured for 4 days, and discovered approximate lethal dose (ALD) therefrom were explained in Table 30 below.

Series [3] concerns rhythmic bladder contractions. In words: Rhythmic bladder contractions in rats (in vivo). The arrangement: species or system rat. The conditions noted are these: 0.3 mpk, intravenous, female Sprague-Dawley rats; amplitude reduction of bladder contractions. An excerpt: [Experimental Example 3] Experiment on Rhythmic Bladder Contractions in Rats (In Vivo)
Female Sprague-Dawley rat was halothane-anesthetized, and a polyethylene catheter was inserted through urethra lay down straight and fixed. Urine in bladder was excreted through the catheter by gently massaging abdomen of the rat, and then removed. A three-way stopcock was connected to the catheter and a pressure transducer was connected to one side of the three-way stopcock to measure pressure, and a syringe was installed at the other side to inject 37° C. of saline solution. The saline solution was slowly injected until regular bladder contractions occurred repeatedly. When regular bladder contractions occurred stably, test compounds were administered intravenously through the tail vein. Inhibitory effect of the test compounds was evaluated by measuring degree of amplitude reduction of bladder contractions.

T1 sequence (P20309 whole entry): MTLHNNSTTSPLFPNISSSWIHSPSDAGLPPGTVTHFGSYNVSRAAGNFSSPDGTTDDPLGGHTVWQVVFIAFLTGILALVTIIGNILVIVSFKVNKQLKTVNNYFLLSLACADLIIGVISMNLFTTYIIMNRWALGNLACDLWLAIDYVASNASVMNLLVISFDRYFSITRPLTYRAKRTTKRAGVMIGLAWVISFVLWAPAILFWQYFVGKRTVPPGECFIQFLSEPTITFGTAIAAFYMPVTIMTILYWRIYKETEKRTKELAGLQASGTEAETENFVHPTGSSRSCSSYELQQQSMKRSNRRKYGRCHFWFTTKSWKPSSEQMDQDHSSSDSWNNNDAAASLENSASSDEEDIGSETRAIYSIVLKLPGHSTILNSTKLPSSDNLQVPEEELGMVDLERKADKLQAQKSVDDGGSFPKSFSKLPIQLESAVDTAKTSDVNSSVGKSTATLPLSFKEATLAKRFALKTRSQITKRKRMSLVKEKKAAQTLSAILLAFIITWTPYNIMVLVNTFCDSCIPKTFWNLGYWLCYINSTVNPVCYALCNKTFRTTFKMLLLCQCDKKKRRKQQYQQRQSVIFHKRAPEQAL

As to `Cc1cccc(-c2ccccc2NC(=O)OCCC2CCCN2C)c1` (stereo not drawn) [Example 15, 2-(1-methylpyrrolidin-2-yl)ethyl(3′-methyl-[1,1′-biphenyl]-2-yl)carbamate], the Ki (usually the equilibrium dissociation constant of an inhibitor or competing ligand from its target) in series [1] is 2.27 nM; in series [2] it was 4.1 nM. Besides, the “Approximate Lethal Dose (ALD)” value with Sprague-Dawley (SD) rats was over 1000 mg/kg. Besides, the “Inhibition of Rhythmic bladder contraction in rats” value (“Inhibition” below) in series [3] stood at 25.6 ± 2.2%.

In the case of `CN1CCCC1CCOC(=O)Nc1ccc(F)cc1-c1ccc(F)c(Cl)c1` (stereo not drawn) [Example 53, 2-(1-methylpyrrolidin-2-yl)ethyl(3′-chloro-4′,5-difluoro-[1,1′-biphenyl]-2-yl)carbamate], the Ki in series [1] came to 1.34 nM; in series [2] it was 0.57 nM. Moreover, the “Approximate Lethal Dose (ALD)” value in the series on Sprague-Dawley (SD) rats is given as over 1000 mg/kg. Also, the “Inhibition” value in series [3] was 28.0 ± 5.0%.

As for `CN1CC[C@@H](COC(=O)Nc2ccccc2-c2ccccc2)C1` [Example 89, (R)-(1-methylpyrrolidin-3-yl)methyl [1,1′-biphenyl]-2-ylcarbamate], the Ki worked out at 2.43 nM in series [1] and 0.16 nM in series [2]. Besides, the “Approximate Lethal Dose (ALD)” value with Sprague-Dawley (SD) rats was over 1000 mg/kg. For the same compound, the “Inhibition” value in series [3] came out at 33.9 ± 3.5%.

Take `CN1CC[C@H](COC(=O)Nc2ccccc2-c2ccccc2)C1` [Example 90, (S)-(1-methylpyrrolidin-3-yl)methyl [1,1′-biphenyl]-2-ylcarbamate]: the Ki is 1.97 nM in series [1] and 0.17 nM in series [2]. The “Approximate Lethal Dose (ALD)” value in the series on Sprague-Dawley (SD) rats is given as over 1000 mg/kg. For the same compound, the “Inhibition” value in series [3] is listed as 27.4 ± 1.9%.

Take `CN1CC[C@@H](COC(=O)Nc2ccccc2-c2cc(F)cc(F)c2)C1` [Example 91, (R)-(1-methylpyrrolidin-3-yl)methyl (3′,5′-difluoro-[1,1′-biphenyl]-2-yl)carbamate]: the Ki in series [1] came to 4.5 nM; in series [2], 1.32 nM. Besides, the “Approximate Lethal Dose (ALD)” value in the series on Sprague-Dawley (SD) rats is reported as over 1000 mg/kg. Also, in series [3], the “Inhibition” value was 25.2 ± 2.5%.

`Cc1cccc(-c2ccccc2NC(=O)OC[C@@H]2CCN(C)C2)c1` [Example 100, (R)-(1-methylpyrrolidin-3-yl)methyl(3′-methyl-[1,1′-biphenyl]-2-yl)carbamate]: the results for the Ki in series [1] and in series [2] were 2.43 nM and 0.64 nM, respectively. Further, the “Approximate Lethal Dose (ALD)” value with Sprague-Dawley (SD) rats is over 1000 mg/kg. In addition, the “Inhibition” value in series [3] was found to be 26.0 ± 6.0%.

Turning to `CN1CCC[C@H]1COC(=O)Nc1ccccc1-c1ccc(Cl)c(Cl)c1` [Example 166, (S)-(1-methylpyrrolidin-2-yl)methyl(3′,4′-dichloro-[1,1′-biphenyl]-2-yl)carbamate], the Ki in series [1] stood at 9.04 nM; in series [2], 1.33 nM. For the same compound, the “Inhibition” value in series [3] came out at 10.2 ± 1.7%.

Take `CN1CCC[C@H]1COC(=O)Nc1cc(F)c(F)cc1-c1ccc(F)c(Cl)c1` [Example 181, (S)-(1-methylpyrrolidin-2-yl)methyl(3′-chloro-4,4′,5-trifluoro-[1,1′-biphenyl]-2-yl)carbamate]: the Ki in series [1] turned out to be 3.29 nM; in series [2] it was 0.29 nM. Moreover, the “Inhibition” value in series [3] is listed as 18.1 ± 2.6%.

`CN1CC[C@@H](COC(=O)Nc2ccc(F)cc2-c2cccc(F)c2)C1` [Example 194, (R)-(1-methylpyrrolidin-3-yl)methyl(3′,5-difluoro-[1,1′-biphenyl]-2-yl)carbamate]: the Ki in series [1] stood at 6.3 nM; in series [2] it was 0.58 nM. In addition, the “Inhibition” value in series [3] is on record as 24.6 ± 2.6%.

In the case of `Cc1ccc(NC(=O)OC[C@@H]2CCCN2C)c(-c2cccc(F)c2)c1` [Example 207, (S)-(1-methylpyrrolidin-2-yl)methyl(3′-fluoro-5-methyl-[1,1′-biphenyl]-2-yl)carbamate], the Ki in series [1] was 13.4 nM; in series [2] it was 3.52 nM. Further, the “Inhibition” value in series [3] was 18.2 ± 3.7%.
